SMILES strings stand for the structures. pIC50: −log10 of the molar value. Some results are limits rather than exact numbers.

In this assay the target is T1, human VR1 (Homo sapiens, UniProt Q8NER1).
T1 construct: expressed in transfected cells
T1 sequence (Q8NER1 whole entry): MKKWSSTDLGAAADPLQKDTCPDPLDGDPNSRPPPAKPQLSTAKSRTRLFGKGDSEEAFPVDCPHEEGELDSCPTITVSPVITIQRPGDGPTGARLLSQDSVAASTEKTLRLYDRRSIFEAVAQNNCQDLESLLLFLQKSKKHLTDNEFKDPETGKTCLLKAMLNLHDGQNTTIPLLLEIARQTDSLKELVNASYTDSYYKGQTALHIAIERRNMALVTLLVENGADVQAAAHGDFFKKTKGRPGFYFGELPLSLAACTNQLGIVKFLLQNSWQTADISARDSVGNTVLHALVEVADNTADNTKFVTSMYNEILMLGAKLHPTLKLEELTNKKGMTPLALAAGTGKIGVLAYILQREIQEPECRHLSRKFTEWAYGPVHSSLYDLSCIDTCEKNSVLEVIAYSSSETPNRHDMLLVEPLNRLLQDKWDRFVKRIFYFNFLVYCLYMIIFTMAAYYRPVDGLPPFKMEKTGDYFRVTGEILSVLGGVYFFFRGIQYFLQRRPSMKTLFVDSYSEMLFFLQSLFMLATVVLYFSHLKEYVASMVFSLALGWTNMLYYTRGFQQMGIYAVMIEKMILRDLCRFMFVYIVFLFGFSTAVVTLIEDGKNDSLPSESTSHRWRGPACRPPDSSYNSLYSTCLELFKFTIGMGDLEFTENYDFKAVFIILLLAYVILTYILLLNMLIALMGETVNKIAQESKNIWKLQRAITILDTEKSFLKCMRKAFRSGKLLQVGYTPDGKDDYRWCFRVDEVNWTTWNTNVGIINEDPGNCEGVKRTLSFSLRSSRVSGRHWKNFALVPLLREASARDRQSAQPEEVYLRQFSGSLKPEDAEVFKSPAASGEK
As to the kind of experiment: Inhibition of Ca2+ entry in cells caused by proton, in rat glioma (C6BU1) cells stably expressing human VR1 (Fura 2 fluorescence). It is filed as cell-based. The settings on record: inhibition of proton-induced Ca2+ entry. As to the method:
The assay for evaluation of VR1 inhibition by the inventive compounds will be described below. The assay was intended to evaluate in vitro inhibition of Ca^2+ entry in cells caused by proton, one of the VR1 agonists.
Rat glioma (C6BU1) cells stably expressing human VR1 were suspended in 20 mM MES buffer (at pH 6.8, contg. 20 mM 2-morpholinoethanesulfonate (referred to as MES hereinafter), 115 mM NaCl, 5 mM KCl, 1 mM MgCl2 and 14 mM D-glucose) to make a cell density of 1×10^6 cells/mL. A fluorescent dye, Fura 2-AMsolution (DojindoCorporate, Cat. No. 343-05401) was added to the suspension to make a 5 μM concentration thereof. Further, Pluronic F-127 (Wako Pure Chemical Industries, Ltd., Cat. No. P6866) was added to make a 0.1% content thereof. Then, the suspension was incubated at 37° C. for 30 min. The cells were harvested and washed three times with 20 mM MES buffer. The cells were suspended again to make a cell density of 5×10^5 cells/mL. A 500-μL portion of the suspension was taken with a cuvette (MC MEDICAL, INC., Cat. No. SSR3121), to which 10 μL of 20 mM MES buffer containing 250 mM CaCl2 was added to incorporate Ca^2+ into the cells. At the same time, 5 μL of a test compound solution (in a range of 100 μM to 10 nM in DMSO) was also added to provide a final concentration thereof in a range of 1 μM to 0.1 nM. Alternatively, 5 μL of DMSO was added as control to provide a final concentration of 1% DMSO. The suspension was set in an intracellular ionometer (CAF-110; JASCO) 10 min after those additions. The cells were stimulated with protons by addition of 60 μL of 20 mM MES buffer at pH 1.1 to the suspension to set its pH at 5.5. The activity of the test compound was determined as a difference between the minimum of fluorescence intensity before agonist stimulation and its maximum after the stimulation. The value of IC50 was derived from percentage of inhibition by the test compound compared with the control.
In the tables, the symbol “++” indicates an IC50 value less than 100 nM and the symbol “+” indicates an IC50 value of 100 nM to 1,000 nM inclusive.
`CC(C)(C)c1ccc(NC(=O)c2cccc3c2OCCN3c2ccc(N)cn2)cc1` [Example 1-141] had a pIC50 greater than 7.00.
The result for `COCc1ccc(N2CCOc3c(C(=O)Nc4ccc(C(F)(F)F)cc4)cccc32)nc1` [Example 1-143] reads greater than 7.00; that for `CCOc1ccc(N2CCOc3c(C(=O)Nc4ccc(C(F)(F)F)cc4)cccc32)nc1` [Example 1-144], greater than 7.00.
The result for `COc1cnc(N2CCOc3c(C(=O)Nc4ccc(C(F)(F)F)cc4)cccc32)c(Cl)c1` [Example 1-145] reads greater than 7.00; that for `O=C(Nc1ccc(C(F)(F)F)cc1)c1cccc2c1OCCN2c1ccc(O)cn1` [Example 1-146], greater than 7.00.
The result for `COc1ccc(N2CCOc3c(C(=O)Nc4ccc(C(F)(F)F)cc4)cccc32)nc1` [Example 1-147] reads greater than 7.00; that for `CC(C)(C)c1ccc(NC(=O)c2cccc3c2OCCN3c2cc(Cl)ccn2)cc1` [Example 1-148], greater than 7.00; that for `O=C(Nc1ccc(C(F)(F)F)cc1)c1cccc2c1OCCN2c1ccc(F)cn1` [Example 1-149], greater than 7.00.
For `O=C(Nc1ccc(C(F)(F)F)cc1)c1cccc2c1OCCN2c1ncc(F)cc1F` [Example 1-150], the pIC50 is greater than 7.00.
The result for `COc1cccnc1N1CCOc2c(C(=O)Nc3ccc(C(C)(C)C)cc3)cccc21` [Example 1-151] reads greater than 7.00; that for `Cc1ccc(N2CCOc3c(C(=O)NN4CCC(C(C)(C)C)CC4)cccc32)nc1` [Example 1-152], 6.00 to 7.00.
As for `O=C(Nc1ccc(C(F)(F)F)cc1)c1cccc2c1OCCN2c1ccc(OCCO)cn1` [Example 1-153], the figure is 6.00 to 7.00; as for `O=C(Nc1ccc(C(F)(F)F)cc1)c1cccc2c1OCCN2c1ncc(CCO)cc1Cl` [Example 1-154], greater than 7.00.
Take `Cc1ccc(N2CCOc3c(C(=O)Nc4ccc(OCC(C)(C)O)cc4)cccc32)nc1` [Example 1-155]: the pIC50 is greater than 7.00.
The result for `Cc1ccc(N2CCOc3c(C(=O)Nc4ccc(N5CCCCC5)c(F)c4)cccc32)nc1` [Example 1-156] reads greater than 7.00; that for `Cc1ccc(N2CCOc3c(C(=O)Nc4ccc(N5CCOCC5)c(F)c4)cccc32)nc1` [Example 1-157], greater than 7.00.
As for `Cc1ccc(N2CCOc3c(C(=O)Nc4ccc(F)c(F)c4)cccc32)nc1` [Example 1-158], the figure is greater than 7.00; as for `COc1ccc(NC(=O)c2cccc3c2OCCN3c2ccc(C)cn2)cc1F` [Example 1-159], greater than 7.00.
The result for `CCOc1ccc(NC(=O)c2cccc3c2OCCN3c2ccc(C)cn2)cc1` [Example 1-160] reads greater than 7.00; that for `Cc1ccc(N2CCOc3c(C(=O)Nc4ccc5c(c4)N(C)CCC5)cccc32)nc1` [Example 1-162], greater than 7.00; that for `Cc1ccc(N2CCOc3c(C(=O)Nc4ccc(N(C)C)c(F)c4)cccc32)nc1` [Example 1-163], greater than 7.00.
In turn, `COCCN(c1ccc(NC(=O)c2cccc3c2OCCN3c2ccc(C)cn2)cc1F)C(C)C` [Example 1-164] showed a pIC50 greater than 7.00.
The result for `CC(=O)OCCN(c1ccc(NC(=O)c2cccc3c2OCCN3c2ccc(C)cn2)cc1F)C(C)C` [Example 1-165] reads greater than 7.00; that for `Cc1ccc(N2CCOc3c(C(=O)Nc4ccc(N(CCO)C(C)C)c(F)c4)cccc32)nc1` [Example 1-166], 6.00 to 7.00.
The result for `CCOC(=O)C1CCN(c2ccc(NC(=O)c3cccc4c3OCCN4c3ccc(C)cn3)cc2F)CC1` [Example 1-167] reads greater than 7.00.
The result for `COC1CCN(c2ccc(NC(=O)c3cccc4c3OCCN4c3ccc(C)cn3)cc2F)CC1` [Example 1-169] reads greater than 7.00; that for `CC(=O)OC1CCN(c2ccc(NC(=O)c3cccc4c3OCCN4c3ccc(C)cn3)cc2F)CC1` [Example 1-170], 6.00 to 7.00; that for `Cc1ccc(N2CCOc3c(C(=O)Nc4ccc(N5CCC(O)CC5)c(F)c4)cccc32)nc1` [Example 1-171], 6.00 to 7.00.
As for `COc1cc(NC(=O)c2cccc3c2OCCN3c2ccc(C)cn2)ccc1C` [Example 1-172], the pIC50 was greater than 7.00.
The result for `Cc1ccc(N2CCOc3c(C(=O)Nc4ccc(C)c(OCCO)c4)cccc32)nc1` [Example 1-173] reads greater than 7.00.
In the case of `Cc1ccc(N2CCOc3c(C(=O)Nc4ccc(OC5CCN(C(=O)OC(C)(C)C)CC5)c(F)c4)cccc32)nc1` [Example 1-174], the pIC50 is greater than 7.00.
Compound `CCOC(=O)CO[C@H]1CC[C@H](NC(=O)c2cccc3c2OCCN3c2ccc(C)cn2)CC1` [Example 1-176] gave a pIC50 of 6.00 to 7.00.
In the case of `Cc1ccc(N2CCOc3c(C(=O)N[C@H]4CC[C@H](COC(C)C)CC4)cccc32)nc1` [Example 1-183], the pIC50 was 6.00 to 7.00.
The result for `Cc1ccc(N2CCOc3c(C(=O)N[C@H]4CC[C@H](COC(C)(C)C)CC4)cccc32)nc1` [Example 1-186] reads greater than 7.00; that for `Cc1ccc(N2CCOc3c(C(=O)N[C@H]4CC[C@H](OCC(C)C)CC4)cccc32)nc1` [Example 1-187], greater than 7.00; that for `Cc1ccc(N2CCOc3c(C(=O)N[C@H]4CC[C@H](COCC(C)C)CC4)cccc32)nc1` [Example 1-189], greater than 7.00.
Compound `Cc1ccc(N2CCOc3c(C(=O)N[C@H]4CC[C@H](OCc5ccccc5)CC4)cccc32)nc1` [Example 1-190] had a pIC50 of 6.00 to 7.00.
The result for `Cc1ccc(N2CCOc3c(C(=O)N[C@H]4CC[C@H](C(C)C)CC4)cccc32)nc1` [Example 1-191] reads greater than 7.00.
Consider `CCC[C@H]1CC[C@H](NC(=O)c2cccc3c2OCCN3c2ccc(C)cn2)CC1` [Example 1-192], for which the pIC50 is greater than 7.00.
Compound `Cc1ccc(N2CCOc3c(C(=O)N[C@H]4CC[C@H](OCC(C)(C)C)CC4)cccc32)nc1` [Example 1-193] had a pIC50 greater than 7.00.
As for `COCc1ccc(N2CCOc3c(C(=O)Nc4ccc(C(C)(C)C)cc4)cccc32)nc1` [Example 1-194], the figure is greater than 7.00; as for `O=C(O)c1cnc(N2CCOc3c(C(=O)Nc4ccc(OC(F)(F)F)c(Cl)c4)cccc32)c(Cl)c1` [Example 1-195], 6.00 to 7.00.
The result for `O=C(O)c1cnc(N2CCOc3c(C(=O)Nc4ccc(OC(F)(F)F)cc4)cccc32)c(Cl)c1` [Example 1-196] reads 6.00 to 7.00; that for `CNc1ccc(N2CCOc3c(C(=O)Nc4ccc(OC(F)(F)F)cc4)cccc32)nc1` [Example 1-197], greater than 7.00.
On to `CCOc1ccc(N2CCOc3c(C(=O)Nc4ccc(OC(F)(F)F)cc4)cccc32)nc1` [Example 1-198], for which the pIC50 was 6.00 to 7.00.
The result for `COc1cnc(N2CCOc3c(C(=O)Nc4ccc(OC(F)(F)F)cc4)cccc32)c(Cl)c1` [Example 1-199] reads greater than 7.00; that for `O=C(Nc1ccc(OC(F)(F)F)cc1)c1cccc2c1OCCN2c1ccc(OCCO)cn1` [Example 1-200], 6.00 to 7.00; that for `O=C(Nc1ccc(OC(F)(F)F)cc1)c1cccc2c1OCCN2c1ccc(O)cn1` [Example 1-201], 6.00 to 7.00.
The result for `COc1ccc(N2CCOc3c(C(=O)Nc4ccc(OC(F)(F)F)cc4)cccc32)nc1` [Example 1-202] reads greater than 7.00; that for `N#Cc1cccnc1N1CCOc2c(C(=O)Nc3ccc(OC(F)(F)F)cc3)cccc21` [Example 1-203], greater than 7.00; that for `O=C(OCc1ccccc1)c1cccnc1N1CCOc2c(C(=O)Nc3ccc(OC(F)(F)F)cc3)cccc21` [Example 1-207], 6.00 to 7.00.
The result for `O=C(Nc1ccc(OC(F)(F)F)cc1)c1cccc2c1OCCN2c1ncccc1OCc1ccccc1` [Example 1-209] reads greater than 7.00; that for `O=C(Nc1ccc(OC(F)(F)F)cc1)c1cccc2c1OCCN2c1ncccc1O` [Example 1-210], 6.00 to 7.00.
Regarding `O=C(Nc1ccc(OC(F)(F)F)cc1)c1cccc2c1OCCN2c1ncccc1OCc1ccccn1` [Example 1-216], the pIC50 was 6.00 to 7.00.
With `O=C(Nc1ccc(OC(F)(F)F)cc1)c1cccc2c1OCCN2c1ncccc1OCc1cccnc1` [Example 1-217], the pIC50 was 6.00 to 7.00.
As for `N#Cc1ccc(N2CCOc3c(C(=O)Nc4ccc(OC(F)(F)F)cc4)cccc32)nc1` [Example 1-218], the figure is 6.00 to 7.00.
As for `COCc1cnc(N2CCOc3c(C(=O)Nc4ccc(OC(F)(F)F)cc4)cccc32)c(Cl)c1` [Example 1-220], the figure is greater than 7.00; as for `NC(=O)c1cnc(N2CCOc3c(C(=O)Nc4ccc(OC(F)(F)F)cc4)cccc32)c(Cl)c1` [Example 1-227], greater than 7.00; as for `CC(=O)NC[C@H]1COc2c(C(=O)Nc3ccc(C(F)(F)F)cc3)cccc2N1c1ncccc1Cl` [Example 1-228], greater than 7.00.
Turning to `O=C(Nc1ccc(C(F)(F)F)cc1)c1cccc2c1OC[C@H](C(=O)O)N2c1ncccc1Cl` [Example 1-229], the pIC50 was 6.00 to 7.00.
